Tests used:
[1] = target: T1, Xanthine dehydrogenase/oxidase (Bos taurus, UniProt P80457); assay: Inhibition of bovine xanthine oxidase assessed as reduction in uric acid formation at 10 uM preincubated for 5 mins followed by xanthine addition and measured after 20 mins by spectrophotometry; conditions: cattle
[2] = target: T1, Xanthine dehydrogenase/oxidase; assay: Inhibition of bovine xanthine oxidase assessed as reduction in uric acid formation preincubated for 5 mins followed by xanthine addition and measured after 20 mins by spectrophotometry
[3] = target: T1, Xanthine dehydrogenase/oxidase; assay: Mixed type inhibition of bovine xanthine oxidase assessed as reduction in uric acid formation at 0.5 to 2 uM preincubated for 5 mins followed by xanthine addition and measured after 20 mins by spectrophotometry based Lineweaver-Burk plot analysis; conditions: cattle

T1 sequence (P80457 whole entry): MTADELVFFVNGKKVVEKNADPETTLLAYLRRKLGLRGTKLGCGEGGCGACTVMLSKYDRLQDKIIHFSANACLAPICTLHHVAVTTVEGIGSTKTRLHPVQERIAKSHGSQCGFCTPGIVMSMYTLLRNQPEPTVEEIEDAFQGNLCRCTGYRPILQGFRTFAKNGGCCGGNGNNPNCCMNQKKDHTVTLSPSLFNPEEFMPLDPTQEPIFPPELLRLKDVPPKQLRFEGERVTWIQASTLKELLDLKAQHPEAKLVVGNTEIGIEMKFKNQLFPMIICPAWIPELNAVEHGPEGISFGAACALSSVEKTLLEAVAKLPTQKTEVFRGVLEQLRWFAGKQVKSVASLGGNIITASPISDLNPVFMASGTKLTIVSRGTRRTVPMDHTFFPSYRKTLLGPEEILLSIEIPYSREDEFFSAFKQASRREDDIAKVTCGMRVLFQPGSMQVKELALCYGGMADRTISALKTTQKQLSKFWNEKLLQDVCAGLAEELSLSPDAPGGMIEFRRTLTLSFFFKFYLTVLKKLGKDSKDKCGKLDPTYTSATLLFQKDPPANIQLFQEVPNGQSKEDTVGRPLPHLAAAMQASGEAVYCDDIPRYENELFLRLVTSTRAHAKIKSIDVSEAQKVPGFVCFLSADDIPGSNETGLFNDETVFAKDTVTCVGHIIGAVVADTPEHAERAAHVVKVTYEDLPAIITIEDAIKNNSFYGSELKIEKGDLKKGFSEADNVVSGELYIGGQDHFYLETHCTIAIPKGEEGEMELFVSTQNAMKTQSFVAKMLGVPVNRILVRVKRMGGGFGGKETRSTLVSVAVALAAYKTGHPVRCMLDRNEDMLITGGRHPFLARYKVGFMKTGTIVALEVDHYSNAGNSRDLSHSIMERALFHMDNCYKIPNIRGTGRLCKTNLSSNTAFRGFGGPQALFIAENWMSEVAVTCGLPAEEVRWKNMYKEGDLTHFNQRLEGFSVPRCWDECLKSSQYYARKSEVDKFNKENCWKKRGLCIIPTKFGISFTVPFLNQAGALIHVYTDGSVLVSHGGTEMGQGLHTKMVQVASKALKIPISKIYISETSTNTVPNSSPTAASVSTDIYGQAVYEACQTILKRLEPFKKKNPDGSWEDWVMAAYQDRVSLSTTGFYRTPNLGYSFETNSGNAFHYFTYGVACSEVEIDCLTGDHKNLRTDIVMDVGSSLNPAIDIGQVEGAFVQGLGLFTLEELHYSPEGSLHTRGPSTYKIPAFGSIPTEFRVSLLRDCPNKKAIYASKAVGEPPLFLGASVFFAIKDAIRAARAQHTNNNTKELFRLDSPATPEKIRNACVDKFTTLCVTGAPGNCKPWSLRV

inhibition at 10 µM [1] [%] | IC50 [2] | IC50 ([2]; read-out: IC50) [µM] | inhibition (INH) [3] | SMILES
< 50 | Not Active |  |  | NNC(=O)c1cc(-c2ccccc2)n[nH]c1=O
 |  | 4.5 |  | CC(C)CCOc1ccc(-c2cc(C(=O)NN)c(=O)[nH]n2)cc1C#N
 |  | 2.54 |  | CCOc1ccc(-c2cc(C(=O)NN)c(=O)[nH]n2)cc1C#N
< 50 | Not Active |  |  | NNC(=O)c1cc(-c2cccc([N+](=O)[O-])c2)n[nH]c1=O
 |  | 3.65 |  | CC(C)COc1ccc(-c2cc(C(=O)NN)c(=O)[nH]n2)cc1[N+](=O)[O-]
< 50 | Not Active |  |  | CC(C)COc1ccc(-c2cc(C(=O)NN)c(=O)[nH]n2)cc1
< 50 | Not Active |  |  | NNC(=O)c1cc(-c2ccc([N+](=O)[O-])cc2)n[nH]c1=O
 |  | 1.92 |  | CC(C)Oc1ccc(-c2cc(C(=O)NN)c(=O)[nH]n2)cc1[N+](=O)[O-]
< 50 | Not Active |  |  | CC(C)COc1ccc(-c2cc(C(=O)O)c(=O)[nH]n2)cc1C#N
< 50 | Not Active |  |  | CC(C)Oc1ccc(-c2cc(C(=O)NN)c(=O)[nH]n2)cc1
 |  | 1.03 | Active | CC(C)Oc1ccc(-c2cc(C(=O)NN)c(=O)[nH]n2)cc1C#N
< 50 | Not Active |  |  | CC(C)CCOc1ccc(-c2cc(C(=O)O)c(=O)[nH]n2)cc1C#N
 |  | 3.1 |  | CCCOc1ccc(-c2cc(C(=O)NN)c(=O)[nH]n2)cc1C#N
 |  | 5.89 |  | CCCCCOc1ccc(-c2cc(C(=O)NN)c(=O)[nH]n2)cc1C#N
< 50 | Not Active |  |  | CC(C)Oc1ccc(-c2cc(C(=O)O)c(=O)[nH]n2)cc1[N+](=O)[O-]
 |  | 5.24 |  | CCCCOc1ccc(-c2cc(C(=O)NN)c(=O)[nH]n2)cc1C#N
 |  | 2.97 |  | CC(C)COc1ccc(-c2cc(C(=O)NN)c(=O)[nH]n2)cc1C#N
 |  | 6.02 |  | CC(C)CCOc1ccc(-c2cc(C(=O)NN)c(=O)[nH]n2)cc1[N+](=O)[O-]

Reference: ChEMBL document CHEMBL4392824, “Design, synthesis and bioevaluation of 3-oxo-6-aryl-2,3-dihydropyridazine-4-carbohydrazide derivatives as novel xanthine oxidase inhibitors” (Bioorg Med Chem, 2019)
